Results: ChEMBL document CHEMBL1132795, “Stereoselective binding of an enantiomeric pair of stromelysin-1 inhibitors caused by conformational entropy factors” (Bioorg Med Chem Lett, 2000)

Columns and labels:
[1] = Binding affinity of compound to the stromelysin-1 catalytic domain at pH 6.7, 22 degree C
[2] = Binding affinity of compound to the stromelysin-1 catalytic domain at pH 6.0, 22 degree C

SMILES | Kd [1] | Kd [2]
CC(C)[C@@H](NS(=O)(=O)c1ccc(-c2ccc(Br)cc2)cc1)C(=O)O | 679 nM | –
CC(C)[C@H](NS(=O)(=O)c1ccc(-c2ccc(Br)cc2)cc1)C(=O)O | 76.6 nM | 6.7 nM
